In brackets after ≈: the same amount, converted by molar mass. Read-outs that look alike come from different tables or passages of the source.
Key:
HeLaS3 cells = test: Growth Inhibitory Effect Against HeLaS3 cells; format: cell-based; conditions: Homo sapiens
Method: HeLaS3 cells were suspended in MEM medium containing 10% calf serum and 2 mM glutamine to a concentration of 2.67×10^4 cells/mi. The cell suspension thus prepared was put into wells of a 24-well culture plate in an amount of 0.75 ml per well. After the cells were incubated in a CO2 incubator overnight at 37° C., Compound (I) which had been appropriately diluted with a culture medium was added to each well in an amount of 0.25 ml.
The cells were further incubated in the CO2 incubator for 72 hours, and the culture supernatant was removed. Then, the cells were dispersed in a solution of trypsin and EDTA and recovered. The number of cells was counted using a cell counter. The concentration (IC50) of Compound (I) at which the growth of the cells is inhibited by 50% was calculated by comparing the number of untreated cells with the number of the cells treated with Compound (I) at known concentrations.

[1] = Test for Solubility in Water; format: physicochemical; conditions: room temperature
Method: A sample tube was charged with 0.7 mg of Compound (I), and 30 μl of water were added thereto at room temperature. The mixture was stirred, and the solubility in water was measured. When the compound was not dissolved, 30 μl of water was added thereto successively, and the mixture was stirred. The solubility in water was measured when the compound was dissolved.

Sarcoma 180 tumor = test: Therapeutic Effect Against Sarcoma 180 Tumor; format: in vivo, male ddY-strain mice; conditions: Mus musculus, Sarcoma-180, iv, 168 h, read-out: T/C
Method: Five male ddY-strain mice each weighing 18-20 g were used for each group as test animals, and 5×10^5 Sarcoma 180 tumor cells were implanted at the axilla subcutaneously. One day after the implantation, 0.2 ml of a physiological saline containing Compound (I) at the concentration shown in Table 2 was intravenously administered to each mouse. T/C [T: average tumor volume (mm^3) of the group treated with the test compound, C: average tumor volume (mm^3) of the control group (to which […] of a physiological saline was intravenously administered)] was determined seven days after the implantation.

ddY-strain male mice = test: Acute Toxicity; format: in vivo; conditions: i.v., mortality at 14 days after administration
Method: Compound (I) was intravenously administered to ddY-strain male mice each weighing 20±1 g. MLD (minimum lethal dose) was determined by observing the mortality at 14 days after administration.

[2] = HeLa S3, 72 hours, read-out: IC50
[3] = 1.0 mg/kg, single i.v. one day after s.c. implantation, tumor volume ratio seven days after implantation

## COC(=O)Oc1cc2c(c3c(C(=O)OC)c(C)[nH]c13)C(CBr)CN2C(=O)/C=C/c1ccc(OC)c(N)c1 (stereo not shown) [Compound 38]
HeLaS3 cells; [2]
  IC50: 0.67 nM

## COC(=O)c1c(C)[nH]c2c(OC(=O)N3CCN(C)CC3)cc3c(c12)C(CBr)CN3C(=O)/C=C/c1ccc(OC)c(N)c1 (stereo not shown) [Compound 40]
[1]
  solubility: > 20000 µg/mL

## COC(=O)c1c(C)[nH]c2c1C13CC1CN(C(=O)/C=C/c1ccc(OC)c(N(C)C)c1)C3=CC2=O (stereo not shown) [Compound 41]
HeLaS3 cells; [2]
  IC50: 0.92 nM

## COC(=O)c1c(C)[nH]c2c(OC(=O)N3CCN(C)CC3)cc3c(c12)C(CBr)CN3C(=O)/C=C/c1ccc(OC)c(N(C)C)c1 (stereo not shown) [Compound 43]
HeLaS3 cells; HeLa S3, 72 h
  IC50: 52 nM
Sarcoma 180 tumor
  response vs control in vivo at 2 mg/kg: 13%
ddY-strain male mice
  MLD (minimum lethal dose): 4.0 mg/kg
[1]
  solubility: < 500 µg/mL

## COC(=O)c1c(C)[nH]c2c(OC(C)=O)cc3c(c12)C(CBr)CN3C(=O)/C=C/c1ccc(OC)c(N(C)C)c1 (stereo not shown) [Compound 45]
HeLaS3 cells; HeLa S3, 72 h
  IC50: 0.54 nM
Sarcoma 180 tumor
  response vs control in vivo at 1 mg/kg: 20%
ddY-strain male mice
  MLD (minimum lethal dose): 1.0 mg/kg
[1]
  solubility: > 20000 µg/mL

## CCN(CC)c1cc(/C=C/C(=O)N2CC(CBr)c3c2cc(OC(=O)N2CCN(C)CC2)c2[nH]c(C)c(C(=O)OC)c32)ccc1OC (stereo not shown) [Compound 49]
HeLaS3 cells; HeLa S3, 72 h
  IC50: 280 nM
Sarcoma 180 tumor
  response vs control in vivo at 8 mg/kg: 20%
ddY-strain male mice
  MLD (minimum lethal dose): > 8.0 mg/kg
[1]
  solubility: > 20000 µg/mL

## COC(=O)c1c(C)[nH]c2c(OC(C)=O)cc3c(c12)C(CCl)CN3C(=O)/C=C/c1ccc(OC)c(N(C)C)c1 (stereo not shown) [Compound 51]
HeLaS3 cells; [2]
  IC50: 0.46 nM
Sarcoma 180 tumor; 4.0 mg/kg, single i.v. one day after s.c. implantation, tumor volume ratio seven days after implantation
  response vs control in vivo at 4 mg/kg: 14%
ddY-strain male mice
  MLD (minimum lethal dose): 4.0 mg/kg
[1]
  solubility: > 10000 µg/mL

## COC(=O)c1c(C)[nH]c2c(OC(=O)N(C)N)cc3c(c12)C(CBr)CN3C(=O)/C=C/c1ccc(OC)c(N(C)C)c1 (stereo not shown) [Compound 53]
HeLaS3 cells; HeLa S3, 72 h
  IC50: 1.2 nM
Sarcoma 180 tumor
  response vs control in vivo at 2 mg/kg: 7%
ddY-strain male mice
  MLD (minimum lethal dose): 2.0 mg/kg

## COC(=O)c1c(C)[nH]c2c(OC(=O)c3ccc(N(C)C)cc3)cc3c(c12)C(CBr)CN3C(=O)/C=C/c1ccc(OC)c(N(C)C)c1 (stereo not shown) [Compound 56]
HeLaS3 cells; HeLa S3, 72 h
  IC50: 2.2 nM
Sarcoma 180 tumor
  response vs control in vivo at 1 mg/kg: 36%
ddY-strain male mice
  MLD (minimum lethal dose): 1.0 mg/kg

## COC(=O)c1c(C)[nH]c2c(OC(=O)c3nccnc3N)cc3c(c12)C(CBr)CN3C(=O)/C=C/c1ccc(OC)c(N(C)C)c1 (stereo not shown) [Compound 58]
[1]
  solubility: > 20000 µg/mL

## COC(=O)c1c(C)[nH]c2c(OC(=O)c3cccnc3)cc3c(c12)C(CBr)CN3C(=O)/C=C/c1cnc(OC)nc1 (stereo not shown) [Compound 67]
HeLaS3 cells; HeLa S3, 72 h
  IC50: 1.2 nM
Sarcoma 180 tumor
  response vs control in vivo at 1 mg/kg: 26%
ddY-strain male mice
  MLD (minimum lethal dose): 1.0 mg/kg

## COC(=O)c1c(C)[nH]c2c(OC(=O)NN3CCN(C)CC3)cc3c(c12)C(CBr)CN3C(=O)/C=C/c1cnc(OC)nc1 (stereo not shown) [Compound 71]
HeLaS3 cells; HeLa S3, 72 h
  IC50: 1.5 nM
Sarcoma 180 tumor
  response vs control in vivo at 2 mg/kg: 30%
[1]
  solubility: > 10000 µg/mL

## COC(=O)c1c(C)[nH]c2c(OC(=O)CSCC(=O)O)cc3c(c12)C(CBr)CN3C(=O)/C=C/c1cnc(OC)nc1 (stereo not shown) [Compound 73]
HeLaS3 cells; [2]
  IC50: 1.2 nM
Sarcoma 180 tumor; [3]
  response vs control in vivo at 1 mg/kg: 36%
[1]
  solubility: < 100 µg/mL

## COC(=O)c1c(C)[nH]c2c(OC(=O)N(C)N)cc3c(c12)C(CBr)CN3C(=O)/C=C/c1cnc(OC)nc1 (stereo not shown) [Compound 74]
HeLaS3 cells; HeLa S3, 72 h
  IC50: 2.4 nM
Sarcoma 180 tumor
  response vs control in vivo at 1 mg/kg: 37%

## COC(=O)c1c(C)[nH]c2c(OC(=O)c3ccc(CN4CCN(C)CC4)cc3)cc3c(c12)C(CBr)CN3C(=O)/C=C/c1cnc(OC)nc1 (stereo not shown) [Compound 76]
HeLaS3 cells; [2]
  IC50: 1.3 nM
Sarcoma 180 tumor; [3]
  response vs control in vivo at 1 mg/kg: 25%
[1]
  solubility: > 10000 µg/mL

## COC(=O)c1c(C)[nH]c2c(OC(=O)c3cccnc3)cc3c(c12)C(CBr)CN3C(=O)/C=C/c1ccc(N(C)C)cc1 (stereo not shown) [Compound 77]
HeLaS3 cells; HeLa S3, 72 h
  IC50: 0.45 nM
Sarcoma 180 tumor
  response vs control in vivo at 4 mg/kg: 19%
ddY-strain male mice
  MLD (minimum lethal dose): 4.0 mg/kg

## COC(=O)c1c(C)[nH]c2c(OC(=O)N3CCN(C)CC3)cc3c(c12)C(CBr)CN3C(=O)/C=C/c1ccc(N(C)C)cc1 (stereo not shown) [Compound 79]
HeLaS3 cells; HeLa S3, 72 h
  IC50: 52 nM
Sarcoma 180 tumor
  response vs control in vivo at 8 mg/kg: 22%
[1]
  solubility: > 20000 µg/mL

## COC(=O)c1c(C)[nH]c2c(O)cc3c(c12)C(CCl)CN3C(=O)/C=C/c1ccc(OC)c(N(C)C)c1 (stereo not shown) [Compound 80]
HeLaS3 cells; [2]
  IC50: 0.44 nM
[1]
  solubility: > 15000 µg/mL

## COC(=O)c1c(C)[nH]c2c(O)cc3c(c12)C(CBr)CN3C(=O)/C=C/c1ccc(OC)c(N(C)C)c1 (stereo not shown) [Compound 81]
HeLaS3 cells; [2]
  IC50: 0.5 nM
[1]
  solubility: 2500 µg/mL (≈ 4.61 mM)

## COC(=O)c1c(C)[nH]c2c(OC(=O)CN3CCN(C)CC3)cc3c(c12)C(CBr)CN3C(=O)/C=C/c1ccc(OC)c(N(C)C)c1 (stereo not shown) [Compound 82]
HeLaS3 cells; HeLa S3, 72 h
  IC50: 0.5 nM
ddY-strain male mice
  MLD (minimum lethal dose): 2.0 mg/kg
[1]
  solubility: > 10000 µg/mL

## COC(=O)c1c(C)[nH]c2c(OC(=O)CN3CCC(N4CCCCC4)CC3)cc3c(c12)C(CBr)CN3C(=O)/C=C/c1ccc(OC)c(N(C)C)c1 (stereo not shown) [Compound 83]
HeLaS3 cells; [2]
  IC50: 0.59 nM
[1]
  solubility: > 20000 µg/mL

— patent US5670492A, “DC-89 derivatives” (priority 1994, dated 1997)
